From patent US20120053053A1, “PYRIMIDINE DERIVATIVES AND THEIR USE AS HERBICIDES” (SYNGENTA CROP PROTECTION, LLC, priority 2009, published 2012)

Key:
Assay type in all cases: in vivo
[1] = tested on: Echinochloa crus-galli (ECHCG); test: Post-emergence biological efficacy (percentage damage); details: Echinochloa crus-galli, 312 h, dose 1,000 g/ha, evaluated after 13 days, 100=total damage, 0=no damage
Description: (§1) Seeds of Alopecurus myosuroides (ALOMY), Setaria faberi (SETFA), Echinochloa crus-galli (ECHCG), Solanum nigrum (SOLNI), Amaranthus retoflexus (AMARE) and Ipomea hederaceae (IPOHE) were sown in standard soil in pots. After cultivation for 8 days under controlled conditions in a glasshouse (at 24/16° C., day/night; 14 hours light; 65% humidity), the plants were sprayed with an aqueous spray solution derived from the formulation of the technical active ingredient in acetone/water (50:50) solution containing 0.5% Tween 20 (polyoxyethylene sorbitan monolaurate, CAS RN 9005-64-5) to give a final dose of 250 or 1000 g/ha of test compound. The test plants were then grown on under controlled conditions in a glasshouse (at 24/16° C., day/night; 14 hours light; 65% humidity) and watered twice daily. After 13 days the test was evaluated (100=total damage to plant; 0=no damage to plant).

Solanum nigrum (SOLNI) [2] = test: as above; details: Solanum nigrum, 312 h, dose 1,000 g/ha, evaluated after 13 days, 100=total damage, 0=no damage
Description: as §1

[3] = tested on: Alopecurus myosuroides (ALOMY); test: as above; details: Alopecurus myosuroides, 312 h, dose 1,000 g/ha, evaluated after 13 days, 100=total damage, 0=no damage
Description: as §1

Setaria faberi (SETFA) [4] = test: as above; details: Setaria faberi, 312 h, dose 1,000 g/ha, evaluated after 13 days, 100=total damage, 0=no damage
Description: as §1

[5] = tested on: Amaranthus retoflexus (AMARE); test: as above; details: Amaranthus retroflexus, 312 h, dose 1,000 g/ha, evaluated after 13 days, 100=total damage, 0=no damage
Description: as §1

[6] = tested on: Ipomea hederaceae (IPOHE); test: as above; details: Ipomoea hederacea, 312 h, dose 1,000 g/ha, evaluated after 13 days, 100=total damage, 0=no damage
Description: as §1

[7] = tested on: Echinochloa crus-galli (ECHCG); test: Pre-emergence biological efficacy (percentage damage); details: Echinochloa crus-galli, 312 h, dose 1,000 g/ha, evaluated after 13 days, 100=total damage, 0=no damage
Description: (§2) Seeds of Alopecurus myosuroides (ALOMY), Setaria faberi (SETFA), Echinochloa crus-galli (ECHCG), Solanum nigrum (SOLNI), Amaranthus retoflexus (AMARE) and Ipomea hederaceae (IPOHE) were sown in standard soil in pots. After cultivation for one day under controlled conditions in a glasshouse (at 24/16° C., day/night; 14 hours light; 65% humidity), the plants were sprayed with an aqueous spray solution derived from the formulation of the technical active ingredient in acetone/water (50:50) solution containing 0.5% Tween 20 (polyoxyethylene sorbitan monolaurate, CAS RN 9005-64-5) to give a final dose of 250 or 1000 g/ha of test compound. The test plants were then grown under controlled conditions in the glasshouse (at 24/16° C., day/night; 14 hours light; 65% humidity) and watered twice daily. After 13 days the test was evaluated (100=total damage to plant; 0=no damage to plant).

Solanum nigrum (SOLNI) [8] = test: as above; details: Solanum nigrum, 312 h, dose 1,000 g/ha, evaluated after 13 days, 100=total damage, 0=no damage
Description: as §2

[9] = tested on: Alopecurus myosuroides (ALOMY); test: as above; details: Alopecurus myosuroides, 312 h, dose 1,000 g/ha, evaluated after 13 days, 100=total damage, 0=no damage
Description: as §2

Setaria faberi (SETFA) [10] = test: as above; details: Setaria faberi, 312 h, dose 1,000 g/ha, evaluated after 13 days, 100=total damage, 0=no damage
Description: as §2

[11] = tested on: Amaranthus retoflexus (AMARE); test: as above; details: Amaranthus retroflexus, 312 h, dose 1,000 g/ha, evaluated after 13 days, 100=total damage, 0=no damage
Description: as §2

[12] = tested on: Ipomea hederaceae (IPOHE); test: as above; details: Ipomoea hederacea, 312 h, dose 1,000 g/ha, evaluated after 13 days, 100=total damage, 0=no damage
Description: as §2

C=Cc1c(N)nc(-c2ccc(Cl)c(N(C)C)c2F)nc1C(=O)OCCC [Compound 33-316]
pest or weed control at 1000 g/ha [1]: 100% | pest or weed control at 1000 g/ha (Solanum nigrum (SOLNI) [2]): 90% | pest or weed control at 1000 g/ha [3]: 70% | pest or weed control at 1000 g/ha (Setaria faberi (SETFA) [4]): 90% | pest or weed control at 1000 g/ha [5]: 100% | pest or weed control at 1000 g/ha [6]: 40% | pest or weed control at 1000 g/ha [7]: 90% | pest or weed control at 1000 g/ha (Solanum nigrum (SOLNI) [8]): 80% | pest or weed control at 1000 g/ha [9]: 60% | pest or weed control at 1000 g/ha (Setaria faberi (SETFA) [10]): 70% | pest or weed control at 1000 g/ha [11]: 90% | pest or weed control at 1000 g/ha [12]: 10%

C=Cc1c(N)nc(-c2ccc(C(F)(F)F)cc2)nc1C(=O)OC [Compound 31-61, 4-Amino-5-ethenyl-6-methoxycarbonyl-2-(4-trifluoromethyl-phenyl)-pyrimidine]
pest or weed control at 1000 g/ha [1]: 0% | pest or weed control at 1000 g/ha (Solanum nigrum (SOLNI) [2]): 70% | pest or weed control at 1000 g/ha [3]: 20% | pest or weed control at 1000 g/ha (Setaria faberi (SETFA) [4]): 0% | pest or weed control at 1000 g/ha [5]: 70% | pest or weed control at 1000 g/ha [6]: 10% | pest or weed control at 1000 g/ha [7]: 0% | pest or weed control at 1000 g/ha (Solanum nigrum (SOLNI) [8]): 0% | pest or weed control at 1000 g/ha [9]: 0% | pest or weed control at 1000 g/ha (Setaria faberi (SETFA) [10]): 0% | pest or weed control at 1000 g/ha [11]: 10% | pest or weed control at 1000 g/ha [12]: 0%

COC(=O)c1nc(-c2ccc(Cl)c(OC)c2F)nc(N)c1C(C)=O [Compound 27-53, 4-Amino-2-(4-chloro-2-fluoro-3-methoxy-phenyl)-6-methoxycarbonyl-5-methylcarbonyl-pyrimidine]
pest or weed control at 1000 g/ha [1]: 30% | pest or weed control at 1000 g/ha (Solanum nigrum (SOLNI) [2]): 90% | pest or weed control at 1000 g/ha [3]: 30% | pest or weed control at 1000 g/ha (Setaria faberi (SETFA) [4]): 40% | pest or weed control at 1000 g/ha [5]: 100% | pest or weed control at 1000 g/ha [6]: 60% | pest or weed control at 1000 g/ha [7]: 20% | pest or weed control at 1000 g/ha (Solanum nigrum (SOLNI) [8]): 100% | pest or weed control at 1000 g/ha [9]: 20% | pest or weed control at 1000 g/ha (Setaria faberi (SETFA) [10]): 10% | pest or weed control at 1000 g/ha [11]: 90% | pest or weed control at 1000 g/ha [12]: 100%

COC(=O)c1nc(-c2ccc(Cl)cc2)nc(N)c1C [Compound 5-41]
pest or weed control at 1000 g/ha [1]: 20% | pest or weed control at 1000 g/ha (Solanum nigrum (SOLNI) [2]): 70% | pest or weed control at 1000 g/ha [3]: 30% | pest or weed control at 1000 g/ha (Setaria faberi (SETFA) [4]): 30% | pest or weed control at 1000 g/ha [5]: 100% | pest or weed control at 1000 g/ha [6]: 40% | pest or weed control at 1000 g/ha [7]: 30% | pest or weed control at 1000 g/ha (Solanum nigrum (SOLNI) [8]): 30% | pest or weed control at 1000 g/ha [9]: 20% | pest or weed control at 1000 g/ha (Setaria faberi (SETFA) [10]): 30% | pest or weed control at 1000 g/ha [11]: 100% | pest or weed control at 1000 g/ha [12]: 10%

C=C(OCC)c1c(N)nc(-c2ccc(Cl)c(N(C)C)c2F)nc1C(=O)OC [Compound 33-67, 4-Amino-2-(4-chloro-3-dimethylamino-2-fluorophenyl)-5-(1-ethoxyethenyl)-6-methoxycarbonyl-pyrimidine]
pest or weed control at 1000 g/ha [1]: 0% | pest or weed control at 1000 g/ha (Solanum nigrum (SOLNI) [2]): 40% | pest or weed control at 1000 g/ha [3]: 0% | pest or weed control at 1000 g/ha (Setaria faberi (SETFA) [4]): 0% | pest or weed control at 1000 g/ha [5]: 10% | pest or weed control at 1000 g/ha [6]: 20% | pest or weed control at 1000 g/ha [7]: 0% | pest or weed control at 1000 g/ha (Solanum nigrum (SOLNI) [8]): 0% | pest or weed control at 1000 g/ha [9]: 0% | pest or weed control at 1000 g/ha (Setaria faberi (SETFA) [10]): 0% | pest or weed control at 1000 g/ha [11]: 0% | pest or weed control at 1000 g/ha [12]: 10%

C=Cc1c(N)nc(-c2ccc(F)c(OC)c2)nc1C(=O)OC [Compound 42-61, 4-Amino-5-ethenyl-2-(4-fluoro-3-methoxyphenyl)-6-methoxycarbonyl-pyrimidine]
pest or weed control at 1000 g/ha [1]: 30% | pest or weed control at 1000 g/ha (Solanum nigrum (SOLNI) [2]): 30% | pest or weed control at 1000 g/ha [3]: 30% | pest or weed control at 1000 g/ha (Setaria faberi (SETFA) [4]): 40% | pest or weed control at 1000 g/ha [5]: 100% | pest or weed control at 1000 g/ha [6]: 10% | pest or weed control at 1000 g/ha [7]: 10% | pest or weed control at 1000 g/ha (Solanum nigrum (SOLNI) [8]): 20% | pest or weed control at 1000 g/ha [9]: 10% | pest or weed control at 1000 g/ha (Setaria faberi (SETFA) [10]): 20% | pest or weed control at 1000 g/ha [11]: 60% | pest or weed control at 1000 g/ha [12]: 0%
